Measurements from US10106526B2, “Inhibitors of cyclin-dependent kinase 7 (CDK7)” (SYROS PHARMACEUTICALS, INC., priority 2014, dated 2018).

Columns and labels:
A673 cells = test: Inhibition of proliferation of A673 cells (CyQUANT, 72 hour); assay type: cell-based, human; conditions: 72 hour proliferation
Experimental: A673 cells are a cell line derived from human muscle Ewing's sarcoma. Representative compounds of the invention were tested at different concentrations (from 4 μM to 126.4 pM; 0.5 log serial dilutions) for their ability to inhibit the proliferation of A673 cells. Known CDK inhibitors flavopiridol and triptolide were used as positive controls. Cells were grown in Dulbecco's Modified Eagle's Medium, +10% FBS+1 mM Sodium Pyruvate. The cells were cultured at 37° C. in a humidified chamber in the presence of 5% CO2. Proliferation assays were conducted over a 72 hour time period. CyQUANT® (Life Technologies, Chicago, Ill. USA) was used to assess the anti-proliferative effects of the compounds following manufacturer's directions and utilizing the reagents supplied with the CyQUANT® kit. In this table, “A” represents an IC50 of less than 500 nM; “B” an IC50 of between 500 nM and 5 μM; and “C” an IC50 of greater than 5 μM.

[1] = molecular target: CDK7/Cyclin H/MAT1 trimeric complex (Homo sapiens, UniProt P50613); test: CDK7 kinase assay, Caliper/LabChip EZ Reader (Biortus Biosciences); assay type: biochemical; conditions: CDK7/Cyclin H/MAT1 10 nM, ATP 2 mM, FAM-CDK7tide 2 μM, 30 min incubation, read-out: CDK7 Inhibition (IC50)
Experimental: Compounds of the invention were further assayed for CDK7 activity at Biortus Biosciences (Jiangyin, Jiangsu Province, P.R. of China) using a CDK7 kinase assay developed with a Caliper/LabChip EZ Reader (Perkin Elmer, Waltham, Mass.). […] The incubation period was chosen such that the total fraction of phosphorylated peptide product produced was <20% for the uninhibited kinase.

Sequence of CDK7/Cyclin H/MAT1 trimeric complex (P50613 whole entry): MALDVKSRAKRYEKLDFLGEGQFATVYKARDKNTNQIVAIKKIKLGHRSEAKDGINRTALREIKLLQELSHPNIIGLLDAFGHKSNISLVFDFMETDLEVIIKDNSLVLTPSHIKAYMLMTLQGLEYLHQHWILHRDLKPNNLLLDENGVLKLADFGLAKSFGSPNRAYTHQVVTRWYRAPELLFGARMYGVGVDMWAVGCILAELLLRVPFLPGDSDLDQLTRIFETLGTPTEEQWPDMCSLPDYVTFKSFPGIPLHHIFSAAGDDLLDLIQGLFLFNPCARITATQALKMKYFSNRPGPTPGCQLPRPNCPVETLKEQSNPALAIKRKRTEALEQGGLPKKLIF
Sequence of CDK7/Cyclin H/MAT1 trimeric complex (P51946 whole entry partner): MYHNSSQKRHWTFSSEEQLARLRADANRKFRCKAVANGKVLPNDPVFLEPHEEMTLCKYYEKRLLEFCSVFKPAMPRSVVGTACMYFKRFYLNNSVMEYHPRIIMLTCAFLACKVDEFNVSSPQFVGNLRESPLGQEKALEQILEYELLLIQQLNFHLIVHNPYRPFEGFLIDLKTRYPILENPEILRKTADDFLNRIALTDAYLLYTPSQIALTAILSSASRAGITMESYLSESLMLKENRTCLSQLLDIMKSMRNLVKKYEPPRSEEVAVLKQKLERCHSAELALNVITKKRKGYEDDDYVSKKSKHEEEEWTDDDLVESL
Sequence of CDK7/Cyclin H/MAT1 trimeric complex (P51948 whole entry partner): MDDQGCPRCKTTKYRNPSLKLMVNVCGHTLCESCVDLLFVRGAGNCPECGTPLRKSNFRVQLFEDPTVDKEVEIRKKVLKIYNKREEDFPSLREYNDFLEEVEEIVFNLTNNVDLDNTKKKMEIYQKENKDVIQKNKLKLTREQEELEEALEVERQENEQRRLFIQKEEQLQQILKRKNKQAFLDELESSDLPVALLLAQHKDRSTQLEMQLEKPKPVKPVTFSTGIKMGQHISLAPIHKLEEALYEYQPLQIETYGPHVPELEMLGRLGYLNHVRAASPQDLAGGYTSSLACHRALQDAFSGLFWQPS

C=CC(=O)N1CC(F)(F)C[C@H]1C(=O)N[C@H]1CCC[C@@H](Nc2ncc(Cl)c(-c3n[nH]c4ccccc34)n2)C1 [compound 391]
IC50 (A673 cells): < 500 nM | IC50 [1]: < 100 nM

CN(C)C/C=C/C(=O)N1CCCC(N2CC(Nc3ncc(Cl)c(-c4c[nH]c5ccccc45)n3)C2)C1 (stereo not shown) [compound 389]
IC50 (A673 cells): < 500 nM | IC50 [1]: > 1000 nM

CCc1cnc(N[C@@H]2CCC[C@H](NC(=O)c3ccc(NC(=O)/C=C/CN(C)C)cn3)C2)nc1-c1c[nH]c2ccccc12 [Compound 262, 5-[[(E)-4-(dimethylamino)but-2-enoyl]amino]-N-[(1S,3R)-3-[[5-ethyl-4-(1H-indol-3-yl)pyrimidin-2-yl]amino]cyclohexyl]pyridine-2-carboxamide]
IC50 (A673 cells; Homo sapiens): < 500 nM | IC50 [1]: < 100 nM

C=CC(=O)Nc1cnc(CN[C@H]2CCC[C@@H](Nc3ncc(Cl)c(-c4n[nH]c5ccccc45)n3)C2)nc1 [compound 405]
IC50 (A673 cells): < 500 nM | IC50 [1]: < 100 nM

CN(C)C/C=C/C(=O)Nc1ccc(C(=O)N[C@@]2(C)CCC[C@@H](Nc3ncc(C(F)(F)F)c(-c4c[nH]c5ccccc45)n3)C2)nc1 [Compound 399, 5-[[(E)-4-(dimethylamino)but-2-enoyl]amino]-N-[(1S,3R)-3-[[4-(1H-indol-3-yl)-5-(trifluoromethyl)pyrimidin-2-yl]amino]-1-methyl-cyclohexyl]pyridine-2-carboxamide]
IC50 (A673 cells; Homo sapiens): < 500 nM | IC50 [1]: < 100 nM

C=CC(=O)NC1CCCN(C2CCCC(Nc3ncc(Cl)c(-c4c[nH]c5ccccc45)n3)C2)C1 (mixture of isomers) [Compound 256]
IC50 (A673 cells): < 500 nM | IC50 [1]: < 100 nM

Cc1cnc(N[C@@H]2CCC[C@H](NC(=O)c3ccc(NC(=O)/C=C/CN(C)C)cn3)C2)nc1-c1c[nH]c2ccccc12 [Compound 265, N-((1S,3R)-3-((4-(1H-indol-3-yl)-5-methylpyrimidin-2-yl)amino)cyclohexyl)-5-((E)-4-(dimethylamino)but-2-enamido)picolinamide]
IC50 (A673 cells; Homo sapiens): < 500 nM | IC50 [1]: < 100 nM

CN(C)C/C=C/C(=O)Nc1ccc(CN[C@@]2(C)CCC[C@@H](Nc3ncc(C(F)(F)F)c(-c4c[nH]c5ccccc45)n3)C2)nc1 [Compound 403, (E)-4-(dimethylamino)-N-[6-[[[(1S,3R)-3-[[4-(1H-indol-3-yl)-5-(trifluoromethyl)pyrimidin-2-yl]amino]-1-methylcyclohexyl]amino]methyl]-3-pyridyl]but-2-enamide]
IC50 (A673 cells; Homo sapiens): < 500 nM | IC50 [1]: < 100 nM

CN(C)C/C=C/C(=O)Nc1ccc(CN(C)[C@H]2CCC[C@@H](Nc3ncc(Cl)c(-c4c[nH]c5ccccc45)n3)C2)nc1 [Compound 377, (E)-N-(6-((((1S,3R)-3-((5-chloro-4-(1H-indol-3-yl)pyrimidin-2-yl)amino)cyclohexyl)(methyl)amino)methyl)pyridin-3-yl)-4-(dimethylamino)but-2-enamide]
IC50 (A673 cells; Homo sapiens): < 500 nM | IC50 [1]: < 100 nM

C=CC(=O)N1CCN([C@]23CCC[C@](Nc4ncc(Cl)c(-c5c[nH]c6ccccc56)n4)(CC2)C3)CC1 [Compound 408, 1-(4-((1R,5S)-5-(5-Chloro-4-(1H-indol-3-yl)pyrimidin-2-ylamino)bicyclo[3.2.1]octan-1-yl)piperazin-1-yl)prop-2-en-1-One]
IC50 (A673 cells; Homo sapiens): < 500 nM | IC50 [1]: < 100 nM

CN(C)C/C=C/C(=O)N1CCN([C@H]2CCC[C@@H](Nc3ncc(Cl)c(-c4cnc5ccccn45)n3)C2)CC1 [compound 400]
IC50 (A673 cells): < 500 nM | IC50 [1]: < 100 nM

C=CC(=O)N1CCN([C@H]2CCC[C@@H](Nc3ncc(Cl)c(-c4cnc5ccccn45)n3)C2)CC1 [Compound 414, 1-[4-[(1S,3R)-3-[(5-chloro-4-imidazo[1,2-a]pyridin-3-yl-pyrimidin-2-yl)amino]cyclohexyl]piperazin-1-yl]prop-2-en-1-One]
IC50 (A673 cells; Homo sapiens): < 500 nM | IC50 [1]: 100 to 1000 nM

C=CC(=O)N1CC(F)(F)C[C@H]1C(=O)N[C@H]1CCC[C@@H](Nc2ncc(C#N)c(-c3c[nH]c4ccccc34)n2)C1 [compound 392]
IC50 (A673 cells): < 500 nM | IC50 [1]: < 100 nM

CN(C)C/C=C/C(=O)N1CC(F)(F)C[C@H]1C(=O)N[C@H]1CCC[C@@H](Nc2ncc(Cl)c(-c3n[nH]c4ccccc34)n2)C1 [compound 404]
IC50 (A673 cells): < 500 nM | IC50 [1]: < 100 nM

CN(C)C/C=C/C(=O)Nc1ccc(C(=O)N[C@H]2CCC[C@@H](Nc3ncc(Cl)c(C4C(=O)Nc5ccccc54)n3)C2)nc1 (stereo partly drawn) [Compound 282, N-((1S,3R)-3-(5-Chloro-4-(2-oxoindolin-3-yl)pyrimidin-2-ylamino)cyclohexyl)-5-((E)-4-(dimethylamino)but-2-enamido)picolinamide]
IC50 (A673 cells; Homo sapiens): < 500 nM | IC50 [1]: 100 to 1000 nM

C=CC(=O)N1CCN([C@H]2CCC[C@@H](Nc3ncc(Cl)c(-c4n[nH]c5ccccc45)n3)C2)CC1 [compound 388]
IC50 (A673 cells): < 500 nM | IC50 [1]: 100 to 1000 nM

C=CC(=O)N1CCN(C2CCCC(Nc3ncc(Cl)c(-c4c[nH]c5ccccc45)n3)C2)C(C)C1 (stereo not shown) [Compound 257]
IC50 (A673 cells): < 500 nM | IC50 [1]: 100 to 1000 nM

C=CC(=O)N1CCN([C@H]2CCC[C@@H](Nc3ncc(Cl)c(-c4c[nH]c5ccc(OC)cc45)n3)C2)CC1 [Compound 375, 1-(4-((1S,3R)-3-(5-chloro-4-(5-methoxy-1H-indol-3-yl)pyrimidin-2-ylamino)cyclohexyl)piperazin-1-yl)prop-2-en-1-One]
IC50 (A673 cells; Homo sapiens): < 500 nM | IC50 [1]: > 1000 nM

CN(C)C/C=C/C(=O)N1CC(F)(F)C[C@H]1C(=O)N[C@H]1CCC[C@@H](Nc2ncc(C#N)c(-c3c[nH]c4ccccc34)n2)C1 [compound 396]
IC50 (A673 cells): < 500 nM | IC50 [1]: < 100 nM

CN(C)C/C=C/C(=O)Nc1ccc(C(=O)N[C@@]2(C)CCC[C@@H](Nc3ncc(Cl)c(-c4c[nH]c5ccccc45)n3)C2)nc1 [Compound 267, N-((1S,3R)-3-(5-chloro-4-(1H-indol-3-yl)pyrimidin-2-ylamino)-1-methylcyclohexyl)-5-((E)-4-(dimethylamino)but-2-enamido)picolinamide]
IC50 (A673 cells; Homo sapiens): < 500 nM | IC50 [1]: < 100 nM

C=CC(=O)N1CCN([C@@]23CCC[C@@](Nc4ncc(Cl)c(-c5c[nH]c6ccccc56)n4)(CC2)C3)CC1 [Compound 409, 1-(4-((1S,5R)-5-(5-chloro-4-(1H-indol-3-yl)pyrimidin-2-ylamino)bicyclo[3.2.1]octan-1-yl)piperazin-1-yl)prop-2-en-1-One]
IC50 (A673 cells; Homo sapiens): < 500 nM | IC50 [1]: < 100 nM

CN(C)C/C=C/C(=O)N1CC(F)(F)C[C@H]1C(=O)N[C@H]1CCC[C@@H](Nc2ncc(Cl)c(-c3c[nH]c4ccccc34)n2)C1 [compound 394]
IC50 (A673 cells): < 500 nM | IC50 [1]: < 100 nM

C=C(F)C(=O)Nc1ccc(C(=O)N[C@H]2CCC[C@@H](Nc3ncc(Cl)c(-c4c[nH]c5ccccc45)n3)C2)nc1 [compound 402]
IC50 (A673 cells): < 500 nM | IC50 [1]: 100 to 1000 nM

C=CC(=O)NC1CN(C2CCCC(Nc3ncc(Cl)c(-c4c[nH]c5ccccc45)n3)C2)C1 (mixture of isomers) [Compound 255]
IC50 (A673 cells): < 500 nM | IC50 [1]: < 100 nM

C=CC(=O)NC1CC2CCC(C1)N2C1CCCC(Nc2ncc(Cl)c(-c3c[nH]c4ccccc34)n2)C1 (mixture of isomers) [Compound 259]
IC50 (A673 cells): < 500 nM | IC50 [1]: 100 to 1000 nM

CCc1cnc(N[C@@H]2CCC[C@](C)(NCc3ccc(NC(=O)/C=C/CN(C)C)cn3)C2)nc1-c1c[nH]c2ccccc12 [Compound 411, (E)-4-(dimethylamino)-N-[6-[[[(1S,3R)-3-[[5-ethyl-4-(1H-indol-3-yl)pyrimidin-2-yl]amino]-1-methylcyclohexyl]amino]methyl]-3-pyridyl]but-2-enamide]
IC50 (A673 cells; Homo sapiens): < 500 nM | IC50 [1]: < 100 nM

CN(C)C/C=C/C(=O)Nc1ccc(CN[C@@]2(C)CCC[C@@H](Nc3ncc(Cl)c(-c4c[nH]c5ccccc45)n3)C2)nc1 [Compound 294, (E)-N-(6-(((1S,3R)-3-(5-chloro-4-(1H-indol-3-yl)pyrimidin-2-ylamino)-1-methylcyclohexylamino)methyl)pyridin-3-yl)-4-(dimethylamino)but-2-enamide]
IC50 (A673 cells; Homo sapiens): < 500 nM | IC50 [1]: < 100 nM

C=CC(=O)N[C@H]1CCN([C@H]2CCC[C@@H](Nc3ncc(Cl)c(-c4c[nH]c5ccccc45)n3)C2)C1 [Compound 370, N—((S)-1-((1S,3R)-3-((5-chloro-4-(1H-indol-3-yl)pyrimidin-2-yl)amino)cyclohexyl)pyrrolidin-3-yl)acrylamide]
IC50 (A673 cells; Homo sapiens): < 500 nM | IC50 [1]: < 100 nM

C=CC(=O)N1CCN([C@H]2CCC[C@@H](Nc3ncc(Cl)c(-c4c[nH]c5ccccc45)n3)C2)C(=O)C1 [compound 410]
IC50 (A673 cells): < 500 nM | IC50 [1]: < 100 nM

C=CC(=O)N1CCN([C@H]2CCC[C@@H](Nc3ncc(Cl)c(-c4c[nH]c5c(OC)cccc45)n3)C2)CC1 [compound 395]
IC50 (A673 cells): < 500 nM | IC50 [1]: 100 to 1000 nM

CN(C)C/C=C/C(=O)N1CCC[C@@H](NCc2ccc(Nc3ncc(Cl)c(-c4c[nH]c5ccccc45)n3)cc2)C1 [Compound 415, (R,E)-1-(3-((4-((5-chloro-4-(1H-indol-3-yl)pyrimidin-2-yl)amino)benzyl)amino)piperidin-1-yl)-4-(dimethylamino)but-2-en-1-One]
IC50 (A673 cells; Homo sapiens): < 500 nM | IC50 [1]: < 100 nM

C=CC(=O)N1CCN(C2CCCC(Nc3ncc(Cl)c(-c4c[nH]c5ccccc45)n3)C2)C(C)C1 (stereo not shown) [Compound 260]
IC50 (A673 cells): < 500 nM | IC50 [1]: < 100 nM
